Data: ChEMBL document CHEMBL4304826, “Lead identification and characterization of hTrkA type 2 inhibitors” (Bioorg Med Chem Lett, 2019)

What was measured:
in vivo [1] = conditions: Beagle, dog, plasma, po, 3 mg/kg
in vivo [2] = conditions: Beagle, dog, plasma, iv, 0.2 mg/kg
in vivo [3] = conditions: Beagle, dog, plasma, po, 3 mg/kg; remark: listed apart in the source
in vivo [4] = conditions: Beagle, dog, po, 3 mg/kg
in vivo [5] = conditions: Beagle, dog, plasma, po, 3 mg/kg; remark: listed apart in the source
in vivo [6] = conditions: Beagle, dog, plasma, iv, 0.2 mg/kg; remark: listed apart in the source
in vitro [7] = conditions: dog, liver microsomes
in vitro [8] = conditions: dog, MDCK
in vivo [9] = conditions: Beagle, dog, plasma, po, 3 mg/kg; remark: listed apart in the source
in vivo [10] = conditions: Beagle, dog, plasma, po, 3 mg/kg; remark: listed apart in the source
in vivo [11] = conditions: Beagle, dog, plasma, iv, 0.2 mg/kg; remark: listed apart in the source
in vivo [12] = conditions: Beagle, dog, plasma, iv, 0.2 mg/kg; remark: listed apart in the source
in vivo [13] = conditions: Beagle, dog, plasma, iv, 0.2 mg/kg; remark: listed apart in the source
in vitro [14] = conditions: dog, MDCK; remark: listed apart in the source

- AUC(0-t) (in vivo [1]): 1780 ng·h/mL
- Vd (in vivo [2]): 0.164 L/kg
- AUC(0-inf) (in vivo [3]): 1790 ng·h/mL
- bioavailability (in vivo [4]): 16%
- Tmax (in vivo [5]): 45 min
- clearance (in vivo [6]): 4.43 mL/min/kg
- half-life (in vitro [7]): 9 min
- Papp B→A (in vitro [8]): 3.73 ×10⁻⁶ cm/s
- Cmax (in vivo [9]): 1140 ng/mL
- half-life (in vivo [10]): 39 min
- half-life (in vivo [11]): 37.8 min
- AUC(0-t) (in vivo [12]): 748 ng·h/mL
- AUC(0-inf) (in vivo [13]): 755 ng·h/mL
- Papp A→B (in vitro [14]): 0.14 ×10⁻⁶ cm/s
SMILES: Cc1ccc2nc(CSc3nnc(NC(=O)Nc4cccc(C(F)(F)F)c4)s3)cc(=O)n2c1
